Measurements reported in patent publication US20260248783A1 (ASCLETIS BIOSCIENCE CO., LTD., priority 2021, published 2026).
Counter-ions that a name gives are not always drawn.

Molecular target: T1, PD-1/PD-L1 (Homo sapiens, UniProt Q9NZQ7)
T1 construct: Recombinant human PD-L1 protein (19-238) with a Histag at the C-terminus; purchased AcroBiosystems PD1-H5229 (PD-L1); PD1-H5257 (PD-1)
Assay: PD-1/PD-L1 Homogeneous Time-Resolved Fluorescence (HTRF) Binding Assay
Conditions: PD-1/PD-L1 HTRF activity; 3 nM PD1, 10 nM PD-L1, 25° C.
Method: Example 107. PD-1/PD-L1 Homogeneous Time-Resolved Fluorescence (HTRF) Binding Assay
The assays were conducted in a standard black 384-well polystyrene plate with a final volume of 20 μL. Inhibitors were first serially diluted in DMSO and then added to the plate wells before the addition of other reaction components. The final concentration of DMSO in the assay was 1%. The assays were carried out at 25° C. in the PBS buffer (pH 7.4) with 0.05% Tween-20 and 0.1% BSA. Recombinant human PD-L1 protein (19-238) with a Histag at the C-terminus was purchased from AcroBiosystems (PD1-H5229). Recombinant human PD-1 protein (25-167) with Fe tag at the C-terminus was also purchased from AcroBiosystems (PD1-H5257). PD-L1 and PD-1 proteins were diluted in the assay buffer and 10 μL was added to the plate well. Plates were centrifuged and proteins were preincubated with inhibitors for 40 minutes. The incubation was followed by the addition of 10 μL of HTRF detection buffer supplemented with Europium cryptate-labeled anti-human IgG (PerkinElmer-AD0212) specific for Fe and anti-His antibody conjugated to SureLight®—Allophycocyanin (APC, PerkinElmer-AD0059H). After centrifugation, the plate was incubated at 25° C. for 60 min. before reading on a PHERAstar FS plate reader (665 nm/620 nm ratio). Final concentrations in the assay were […], 10 nM PD-L1, 1 nM europium anti-human IgG and 20 nM anti-His-Allophycocyanin. IC50 determination was performed by fitting the curve of percent control activity versus the log of the inhibitor concentration.

T1 sequence (Q9NZQ7 19-238): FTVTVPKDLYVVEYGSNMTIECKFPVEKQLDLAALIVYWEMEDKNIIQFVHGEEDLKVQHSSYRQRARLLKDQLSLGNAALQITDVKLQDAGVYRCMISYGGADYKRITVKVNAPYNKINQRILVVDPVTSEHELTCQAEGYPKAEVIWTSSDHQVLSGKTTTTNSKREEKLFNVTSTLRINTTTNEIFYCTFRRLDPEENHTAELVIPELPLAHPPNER

O=C(O)CCn1cnn2cc(-c3cccc(-c4cccc(-c5cc6c(=O)n(CCC(=O)O)cnn6c5)c4Cl)c3Cl)cc2c1=O [Compound 24, 3,3′-((2,2′-dichloro-[1,1′-biphenyl]-3,3′-diyl)bis(4-oxopyrrolo[2,1-f][1,2,4]triazine-6,3(4H)-diyl))dipropionic acid]
IC50: ≥ 100 nM

O=c1c2cc(-c3cccc(-c4cccc(-c5cc6c(=O)n(CCn7nccn7)cnn6c5)c4Cl)c3Cl)cn2ncn1CCn1nccn1 [Compound 25, 6,6′-(2,2′-dichloro-[1,1′-biphenyl]-3,3′-diyl)bis(3-(2-(2H-1,2,3-triazol-2-yl)ethyl)pyrrolo[2,1-f][1,2,4]triazin-4(3H)-one)]
IC50: 10 to 100 nM

CN1CCN(CCn2cnn3cc(-c4cccc(-c5cccc(-c6cc7c(=O)n(CCN8CCN(C)CC8)cnn7c6)c5Cl)c4Cl)cc3c2=O)CC1 [Compound 26, 6,6′-(2,2′-dichloro-[1,1′-biphenyl]-3,3′-diyl)bis(3-(2-(4-methylpiperazin-1-yl)ethyl)pyrrolo[2,1-f][1,2,4]triazin-4(3H)-one)]
IC50: ≥ 100 nM

O=C1CCC(Cn2cnn3cc(-c4cccc(-c5cccc(-c6cc7c(=O)n(CC8CCC(=O)O8)cnn7c6)c5Cl)c4Cl)cc3c2=O)O1 (centres unmarked) [Compound 27, 6,6′-(2,2′-dichloro-[1,1′-biphenyl]-3,3′-diyl)bis(3-((5-oxotetrahydrofuran-2-yl)methyl)pyrrolo[2,1-f][1,2,4]triazin-4(3H)-one)]
IC50: ≥ 100 nM

O=C(O)CCC(O)Cn1cnn2cc(-c3cccc(-c4cccc(-c5cc6c(=O)n(CC(O)CCC(=O)O)cnn6c5)c4Cl)c3Cl)cc2c1=O (centres unmarked) [Compound 28, 5,5′-((2,2′-dichloro-[1,1′-biphenyl]-3,3′-diyl)bis(4-oxopyrrolo[2,1-f][1,2,4]triazine-6,3(4H)-diyl))bis(4-hydroxypentanoic acid)]
IC50: ≥ 100 nM

Cc1cn2nc(-c3cccc(-c4cccc(-c5cc6c(=O)n(C[C@@H]7CCC(=O)N7)c(C)cn6n5)c4Cl)c3Cl)cc2c(=O)n1C[C@@H]1CCC(=O)N1 [Compound 29]
IC50: < 10 nM

Cc1cn2cc(-c3cccc(-c4cccc(-c5cc6c(=O)n(C[C@@H]7CCC(=O)N7)c(C)cn6c5)c4Cl)c3Cl)cc2c(=O)n1C[C@@H]1CCC(=O)N1 [Compound 30, 7,7′-(2,2′-dichloro-[1,1′-biphenyl]-3,3′-diyl)bis(3-methyl-2-(((S)-5-oxopyrrolidin-2-yl)methyl)pyrrolo[1,2-a]pyrazin-1(2H)-one)]
IC50: < 10 nM

O=C1CC[C@@H](Cn2c(C3CC3)cn3cc(-c4cccc(-c5cccc(-c6cc7c(=O)n(C[C@@H]8CCC(=O)N8)c(C8CC8)cn7c6)c5Cl)c4Cl)cc3c2=O)N1 [Compound 31, 7,7′-(2,2′-dichloro-[1,1′-biphenyl]-3,3′-diyl)bis(3-cyclopropyl-2-(((S)-5-oxopyrrolidin-2-yl)methyl)pyrrolo[1,2-a]pyrazin-1(2H)-one)]
IC50: 10 to 100 nM

O=C1CC[C@@H](Cn2c(C3CC3)cn3nc(-c4cccc(-c5cccc(-c6cc7c(=O)n(C[C@@H]8CCC(=O)N8)c(C8CC8)cn7n6)c5Cl)c4Cl)cc3c2=O)N1 [Compound 32, 2,2′-(2,2′-dichloro-[1,1′-biphenyl]-3,3′-diyl)bis(6-cyclopropyl-5-(((S)-5-oxopyrrolidin-2-yl)methyl)pyrazolo[1,5-a]pyrazin-4(5H)-one)]
IC50: 10 to 100 nM

CCc1cn2nc(-c3cccc(-c4cccc(-c5cc6c(=O)n(C[C@@H]7CCC(=O)N7)c(CC)cn6n5)c4Cl)c3Cl)cc2c(=O)n1C[C@@H]1CCC(=O)N1 [Compound 33, 2,2′-(2,2′-dichloro-[1,1′-biphenyl]-3,3′-diyl)bis(6-ethyl-5-(((S)-5-oxopyrrolidin-2-yl)methyl)pyrazolo[1,5-a]pyrazin-4(5H)-one)]
IC50: 10 to 100 nM

O=C1CC[C@@H](Cn2c(C3CC3)nn3cc(-c4cccc(-c5cccc(-c6cc7c(=O)n(C[C@@H]8CCC(=O)N8)c(C8CC8)nn7c6)c5Cl)c4Cl)cc3c2=O)N1 [Compound 34, 6,6′-(2,2′-dichloro-[1,1′-biphenyl]-3,3′-diyl)bis(2-cyclopropyl-3-(((S)-5-oxopyrrolidin-2-yl)methyl)pyrrolo[2,1-f][1,2,4]triazin-4(3H)-one)]
IC50: 10 to 100 nM

Cc1nn2cc(-c3cccc(-c4cccc(-c5cc6c(=O)n(C[C@@H]7CCC(=O)N7)c(C)nn6c5)c4Cl)c3Cl)cc2c(=O)n1C[C@@H]1CCC(=O)N1 [Compound 35, 6,6′-(2,2′-dichloro-[1,1′-biphenyl]-3,3′-diyl)bis(2-methyl-3-(((S)-5-oxopyrrolidin-2-yl)methyl)pyrrolo[2,1-f][1,2,4]triazin-4(3H)-one)]
IC50: < 10 nM

Cc1cn2nc(-c3cccc(-c4cccc(-c5cc6c(=O)n(C[C@H]7CCCN7)c(C)cn6n5)c4Cl)c3Cl)cc2c(=O)n1C[C@H]1CCCN1 [Compound 37, 2,2′-(2,2′-dichloro-[1,1′-biphenyl]-3,3′-diyl)bis(6-methyl-5-(((R)-pyrrolidin-2-yl)methyl)pyrazolo[1,5-a]pyrazin-4(5H)-one) dihydrochloride]
IC50: 10 to 100 nM

Cc1cn2cc(-c3cccc(-c4cccc(-c5cc6c(=O)n(C[C@@H]7CCCN7)c(C)cn6c5)c4Cl)c3Cl)cc2c(=O)n1C[C@@H]1CCCN1 [Compound 38, 7,7′-(2,2′-dichloro-[1,1′-biphenyl]-3,3′-diyl)bis(3-methyl-2-(((S)-pyrrolidin-2-yl)methyl)pyrrolo[1,2-a]pyrazin-1(2H)-one)]
IC50: 10 to 100 nM

Cc1cn2cc(-c3cccc(-c4cccc(-c5cc6c(=O)n(C[C@H]7CCCN7)c(C)cn6c5)c4Cl)c3Cl)cc2c(=O)n1C[C@H]1CCCN1 [Compound 39, 7,7′-(2,2′-dichloro-[1,1′-biphenyl]-3,3′-diyl)bis(3-methyl-2-(((R)-pyrrolidin-2-yl)methyl)pyrrolo[1,2-a]pyrazin-1(2H)-one)]
IC50: 10 to 100 nM

Cn1c(CN2CC[C@H](C(=O)O)C2)cn2nc(-c3cccc(-c4cccc(-c5cc6c(=O)n(C)c(CN7CC[C@H](C(=O)O)C7)cn6n5)c4Cl)c3Cl)cc2c1=O [Compound 41, (3S,3'S)-1,1′-(((2,2′-dichloro-[1,1′-biphenyl]-3,3′-diyl)bis(5-methyl-4-oxo-4,5-dihydropyrazolo[1,5-a]pyrazine-2,6-diyl))bis(methylene))bis(pyrrolidine-3-carboxylic acid)]
IC50: 10 to 100 nM

Cn1c(CNCCO)cn2nc(-c3cccc(-c4cccc(-c5cc6c(=O)n(C)c(CNCCO)cn6n5)c4Cl)c3Cl)cc2c1=O [Compound 42, 2,2′-(2,2′-dichloro-[1,1′-biphenyl]-3,3′-diyl)bis(6-(((2-hydroxyethyl)amino)methyl)-5-methylpyrazolo[1,5-a]pyrazin-4(5H)-one)]
IC50: < 10 nM

CC(=O)NCCNCc1cn2cc(-c3cccc(-c4cccc(-c5cc6c(=O)n(C)c(CNCCNC(C)=O)cn6c5)c4Cl)c3Cl)cc2c(=O)n1C [Compound 44, N,N′-(((((2,2′-dichloro-[1,1′-biphenyl]-3,3′-diyl)bis(2-methyl-1-oxo-1,2-dihydropyrrolo[1,2-a]pyrazine-7,3-diyl))bis(methylene))bis(azanediyl))bis(ethane-2,1-diyl))diacetamide]
IC50: 10 to 100 nM

Cn1c(CNCCO)cn2cc(-c3cccc(-c4cccc(-c5cc6c(=O)n(C)c(CNCCO)cn6c5)c4Cl)c3Cl)cc2c1=O [Compound 45, 7,7′-(2,2′-dichloro-[1,1′-biphenyl]-3,3′-diyl)bis(3-(((2-hydroxyethyl)amino)methyl)-2-methylpyrrolo[1,2-a]pyrazin-1(2H)-one)]
IC50: < 10 nM

Cn1c(CN2CC[C@H](O)C2)cn2cc(-c3cccc(-c4cccc(-c5cc6c(=O)n(C)c(CN7CC[C@H](O)C7)cn6c5)c4Cl)c3Cl)cc2c1=O [Compound 46, 7,7′-(2,2′-dichloro-[1,1′-biphenyl]-3,3′-diyl)bis(3-(((S)-3-hydroxypyrrolidin-1-yl)methyl)-2-methylpyrrolo[1,2-a]pyrazin-1(2H)-one)]
IC50: 10 to 100 nM

Cc1cn2cc(-c3cccc(-c4cccc(-c5cc6c(=O)n(CCN7CC[C@H](O)C7)c(C)cn6c5)c4Cl)c3Cl)cc2c(=O)n1CCN1CC[C@H](O)C1 [Compound 48, 7,7′-(2,2′-dichloro-[1,1′-biphenyl]-3,3′-diyl)bis(2-(2-((S)-3-hydroxypyrrolidin-1-yl)ethyl)-3-methylpyrrolo[1,2-a]pyrazin-1(2H)-one)]
IC50: 10 to 100 nM

Cc1cn2cc(-c3cccc(-c4cccc(-c5cc6c(=O)n(CCN7C[C@@H](O)C[C@H]7C(=O)O)c(C)cn6c5)c4Cl)c3Cl)cc2c(=O)n1CCN1C[C@@H](O)C[C@H]1C(=O)O [Compound 50, (2S,2'S,4S,4'S)-1,1′-(((2,2′-dichloro-[1,1′-biphenyl]-3,3′-diyl)bis(3-methyl-1-oxopyrrolo[1,2-a]pyrazine-7,2(1H)-diyl))bis(ethane-2,1-diyl))bis(4-hydroxypyrrolidine-2-carboxylic acid)]
IC50: 10 to 100 nM

CC(=O)NCCNCCn1c(C)cn2cc(-c3cccc(-c4cccc(-c5cc6c(=O)n(CCNCCNC(C)=O)c(C)cn6c5)c4Cl)c3Cl)cc2c1=O [Compound 54, N,N′-(((((2,2′-dichloro-[1,1′-biphenyl]-3,3′-diyl)bis(3-methyl-1-oxopyrrolo[1,2-a]pyrazine-7,2(1H)-diyl))bis(ethane-2,1-diyl))bis(azanediyl))bis(ethane-2,1-diyl))diacetamide]
IC50: < 10 nM
